Consider two molecules from patent publication US11524937B2, “Indirubin derivatives, and uses thereof” (CITY OF HOPE, priority 2012, dated 2022).

Each structure is given as a SMILES string.

For one assay, the target named is ABL1 (Homo sapiens, UniProt P00519). Description: in vitro kinase assay, recombinant ABL1. In kind it is biochemical. The note with it: ABL versus Src, higher concentration for ABL. The method, then: The in vitro kinase assays of an IRD (IRD Nos. 10, 11, 13, 61, 70, 71, 79, 80, 83˜87 and 176) were carried out using recombinant proteins according to the procedure disclosed in Nam 2012 (Nam, S., Xie, J., Perkins, A., Ma, Y., Yang, F., Wu, J., Wang, Y., Xu, R. Z., Huang, W., Horne, D. A., and Jove, R. (2012) Novel synthetic derivatives of the natural product berbamine inhibit Jak2/Stat3 signaling and induce apoptosis of human melanoma cells, Molecular oncology), which is hereby incorporated by reference in its entirety, as if fully set forth herein.

The subject of assay [1] is p-Stat5 (Y694) in KCL-22 CML cells. Description: Western blot p-Stat5, KCL-22 CML cells. The assay is classed as cell-based, human. The note with it: 4 hours. The method, then:
(§1) Human KCL-22 CML cells were obtained from the American Type Culture Collection (ATCC). Cells were cultured in RPMI-1640 media containing 10% fetal bovine serum (FBS). Imatinib-resistant human KCL-22 CML cells expressing the T315I mutant Bcr-Abl (KCL-22M) were derived from human KCL-22 CML cells (Yuan et al., 2010). Cells were grown in RPMI 1640 media supplemented with 10% FBS. Monoclonal antibodies to Abl protein and phosphotyrosine (p-Y) were obtained from BD Biosciences (San Diego, Calif.). Polyclonal antibodies to p-Stat5 (Y694) and p-Src family (Y419) were obtained from Cell Signaling Technologies (Cambridge, Mass.). Polyclonal antibodies to Stat5 were from Santa Cruz Biotechnology (Santa Cruz, Calif.). Monoclonal antibody to Src was obtained from Millipore (Billerica, Mass.).
(§2) Western analyses were performed as described previously with minor modification (Nam et al., 2005b). Briefly, KCL-22 CML and T315I KCL-22 CML cells were treated with IRDs. Whole-cell lysates were resolved by SDS-PAGE and immunoblotted with specific antibodies. Primary phospho-specific antibodies were incubated in TBS (pH 7.5) with 0.1% Tween-20 and 5% BSA with gentle agitation overnight at 4° C. […] Positive immuno-reactive proteins were detected using the ECL system (Pierce, Rockford, Ill.). […]
In general terms: A western blot detects proteins with antibodies after separation by electrophoresis.

Assay [2] deals with p-Stat5 (Y694) in T315I KCL-22 CML cells. Description: Western blot p-Stat5, T315I KCL-22 CML cells. The assay is classed as cell-based, human. The settings on record: 4 hours. The method, then:
as §1, §2

For assay [3], the system named is p-Src in KCL-22 CML cells. Nature of the assay: Western blot p-Src, KCL-22 CML cells. The assay is classed as cell-based, human. The settings on record: 1.0 μM. The method, then:
as §1, §2

Assay [4] concerns p-Src in T315I KCL-22 CML cells. Description: Western blot p-Src, T315I KCL-22 CML cells. In kind it is cell-based, human. The settings on record: 1.0 μM. The method, then:
as §1, §2

The subject of assay [5] is p-Bcr-Abl in KCL-22 CML cells. Description: Western blot p-Bcr-Abl, KCL-22 CML cells. In kind it is cell-based, human. The settings on record: 4 hours. The method, then:
as §1, §2

Assay [6] deals with p-Bcr-Abl in T315I KCL-22 CML cells. Nature of the assay: Western blot p-Bcr-Abl, T315I KCL-22 CML cells. In kind it is cell-based, human. The note with it: 4 hours. The method, then:
as §1, §2

In assay [7] the test system is Imatinib-resistant human KCL-22 CML cells expressing the T315I mutant Bcr-Abl. Description: Drug resistance of imatinib-resistant T315I KCL-22 CML cells. In kind it is cell-based.

Chain of ABL1 (P00519 whole entry): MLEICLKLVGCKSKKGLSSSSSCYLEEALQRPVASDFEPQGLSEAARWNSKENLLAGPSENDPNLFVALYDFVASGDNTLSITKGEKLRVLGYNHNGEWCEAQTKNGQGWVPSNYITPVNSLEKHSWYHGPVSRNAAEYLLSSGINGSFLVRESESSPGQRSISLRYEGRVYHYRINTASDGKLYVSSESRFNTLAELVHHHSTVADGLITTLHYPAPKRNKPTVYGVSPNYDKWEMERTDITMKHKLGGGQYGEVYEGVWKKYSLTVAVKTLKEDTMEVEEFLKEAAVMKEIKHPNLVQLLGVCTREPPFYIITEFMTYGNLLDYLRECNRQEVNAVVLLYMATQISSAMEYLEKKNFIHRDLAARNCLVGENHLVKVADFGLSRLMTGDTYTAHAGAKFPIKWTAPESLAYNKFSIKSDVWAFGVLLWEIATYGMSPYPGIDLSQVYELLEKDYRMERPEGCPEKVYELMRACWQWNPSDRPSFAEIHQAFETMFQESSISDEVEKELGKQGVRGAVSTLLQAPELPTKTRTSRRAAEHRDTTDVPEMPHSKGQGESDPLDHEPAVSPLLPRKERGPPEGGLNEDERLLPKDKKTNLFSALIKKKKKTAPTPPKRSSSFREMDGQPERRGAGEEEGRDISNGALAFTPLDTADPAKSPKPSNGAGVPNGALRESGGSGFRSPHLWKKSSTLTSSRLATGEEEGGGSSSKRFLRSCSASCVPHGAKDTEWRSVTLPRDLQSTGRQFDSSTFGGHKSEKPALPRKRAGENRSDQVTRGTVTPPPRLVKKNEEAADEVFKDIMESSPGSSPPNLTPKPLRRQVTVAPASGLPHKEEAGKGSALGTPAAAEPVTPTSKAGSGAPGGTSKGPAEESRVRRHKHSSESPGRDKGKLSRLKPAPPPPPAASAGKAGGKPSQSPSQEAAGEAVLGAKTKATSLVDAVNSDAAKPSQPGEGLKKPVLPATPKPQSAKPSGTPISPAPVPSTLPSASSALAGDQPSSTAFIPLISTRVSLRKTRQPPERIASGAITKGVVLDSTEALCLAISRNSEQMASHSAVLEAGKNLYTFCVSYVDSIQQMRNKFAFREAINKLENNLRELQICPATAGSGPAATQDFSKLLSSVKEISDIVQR

`Cl.Cl.O=C1Nc2cc(Br)ccc2C1=C1Nc2ccccc2C1=NOCCN1CCNCC1` [compound 87]: the “concentration inhibiting ABL kinase activity relative to Src kinase activity in vitro” value on ABL1 is “about 15 fold”. For the same molecule, the “tyrosyl phosphorylation of Stat5” value in assay [1] (5 μM) and in assay [2] (5 μM) was “substantially inhibited” each time. For the same molecule, the “total Stat5 levels” value in assay [1] and in assay [2] was “unchanged” throughout. The “autophosphorylation of Src” value in assay [3] and in assay [4] was “strong reduction” each time. In addition, the “concentration that reduced levels of p-Bcr-Abl” value in assay [5] and in assay [6] was “higher than 0.5 μM” in each case.

For `Cc1cn(-c2cc(NC(=O)c3ccc(C)c(Nc4nccc(-c5cccnc5)n4)c3)cc(C(F)(F)F)c2)cn1` [nilotinib], in assay [7], the “resistance of the cells to the drug” value is given as “resist”.
